A short description of experiment [1]: Inhibition of rat eye lens ALR2 using DL-glyceraldehyde by measuring NADPH consumption by spectrophotometric analysis. It is filed as tissue-based.
For experiment [2], the target named is Aldo-keto reductase family 1 member A1 (Rattus norvegicus, UniProt P51635). The experiment is described as follows: Inhibition of rat kidney ALR1 using D-glucuronate by measuring NADPH consumption by spectrophotometric analysis. It is filed as tissue-based.
The species named for the next experiment is Rattus norvegicus. The experiment in a line: Selectivity index, ratio of IC50 for rat kidney ALR1 to IC50 for rat eye lens ALR2.
For experiment [3], the target named is Aldo-keto reductase family 1 member B1 (Homo sapiens, UniProt P15121). The experiment in a line: Inhibition of ALR2 (unknown origin).

Experimental findings from ChEMBL document CHEMBL5352451, “Novel rhodanine based inhibitors of aldose reductase of non-acidic nature with p-hydroxybenzylidene functional group” (Eur J Med Chem, 2023) are described below.

Aldo-keto reductase family 1 member A1, sequence (P51635 whole entry, looked up): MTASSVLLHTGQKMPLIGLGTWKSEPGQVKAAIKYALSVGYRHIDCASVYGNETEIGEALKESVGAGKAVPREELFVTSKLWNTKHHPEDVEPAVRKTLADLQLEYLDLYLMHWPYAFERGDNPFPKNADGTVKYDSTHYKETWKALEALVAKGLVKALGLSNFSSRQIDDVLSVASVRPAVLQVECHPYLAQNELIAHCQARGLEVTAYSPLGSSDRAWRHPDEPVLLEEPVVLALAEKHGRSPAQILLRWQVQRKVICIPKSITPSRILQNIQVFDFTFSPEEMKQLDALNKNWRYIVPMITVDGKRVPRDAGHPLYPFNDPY

For the molecule `O=C1/C(=C/c2ccc(O)cc2)SC(=S)N1/N=C/c1ccccc1Cl`, in experiment [1], inhibition was half-maximal at 149 nM (IC50) and the pIC50 (in general, the negative decadic logarithm of the IC50, by convention in mol/L) is reported as 6.83. Besides, it took 1760 nM to reach half-maximal inhibition in experiment [2] (IC50). Further, in the experiment filed under Rattus norvegicus, the Ratio IC50 amounted to 12.

Take `COC(=O)CN1C(=O)S/C(=C\c2ccc(O)cc2)C1=O`: in experiment [3], half-maximal inhibition (IC50) was put at 6180 nM.

`O=C1/C(=C/c2ccc(O)cc2)SC(=S)N1/N=C/c1ccc(F)cc1`: in experiment [1], the IC50 (usually the point on the concentration scale where inhibition reaches its midpoint) came to 27 nM and the pIC50 turned out to be 7.57. The molecule also yielded an IC50 in experiment [2] of 228 nM. Also, in the experiment listed under Rattus norvegicus, the Ratio IC50 turned out to be 8.

Consider `O=C1/C(=C/c2ccc(O)cc2)SC(=S)N1/N=C/c1ccccc1`, for which, in experiment [1], the midpoint of inhibition, the IC50, lay at 892 nM and the pIC50 was found to be 6.05. In addition, the IC50 in experiment [2] was 21100 nM. Moreover, the Ratio IC50 in the experiment listed under Rattus norvegicus amounted to 24.

For the molecule `COc1ccc(/C=N/N2C(=O)/C(=C/c3ccc(O)cc3)SC2=S)cc1`, in experiment [1], half-maximal inhibition (IC50) was put at 2150 nM and the pIC50 was 5.67. In experiment [2], this molecule displayed a half-inhibitory concentration (IC50) of more than 25000 nM. Further, the Ratio IC50 in the experiment filed under Rattus norvegicus was more than 11.

In experiment [1], `Cc1ccccc1/C=N/N1C(=O)/C(=C/c2ccc(O)cc2)SC1=S` yielded an IC50 of 53 nM and a pIC50 of 7.28. The IC50 in experiment [2] worked out at 635 nM. Further, the Ratio IC50 in the experiment filed under Rattus norvegicus stood at 12.

In experiment [1], `CC(/C=C1\SC(=S)N(CC(=O)O)C1=O)=C\c1ccccc1` [EPALRESTAT] came in with an IC50 of 250 nM and a pIC50 of 6.6.

In the case of `O=C(CN1C(=O)S/C(=C\c2ccc(O)cc2)C1=O)NO`, the 50% inhibitory concentration (IC50) in experiment [3] came out at 1790 nM.

With `O=C(CN1C(=O)S/C(=C\c2ccc(O)cc2)C1=O)Nc1ccccc1O`, in experiment [3], the IC50 was found to be 950 nM.

Take `O=C1S/C(=C\c2ccc(O)cc2)C(=O)N1CC(=O)C(F)(F)F`: in experiment [3], the IC50 amounted to 3000 nM.

In turn, `COc1ccc2nc(/N=C3\NC(=O)/C(=C/c4ccc(O)cc4)S3)sc2c1` registered an IC50 in experiment [3] of 1300 nM.

Take `O=C1/C(=C/c2ccc(O)cc2)SC(=S)N1/N=C/c1ccc(O)cc1`: in experiment [1], the IC50 was found to be 22 nM and the pIC50 worked out at 7.66. The molecule further showed a 50% inhibitory concentration (IC50) in experiment [2] of 116 nM. The Ratio IC50 in the experiment listed under Rattus norvegicus amounted to 5.
